Patent US5310752A, “Site specific alkylating agents” (priority 1986, dated 1994)
≈ marks a conversion by molar mass, not a printed value. Where a name gives a salt, the structure may show the parent alone. Read-outs that look alike come from different tables or passages of the source.

Columns and labels:
L1210 leukemia cells = assay: in vitro cytotoxicity, L1210 leukemia cells, 4 hours treatment; assay type: cell-based; settings: murine L1210 leukemia cells, cytotoxicity evaluated after 4 hours treatment
Experimental: (§1) The in vitro antitumor activity was evaluated by cytotoxicity studies carried out on murine L1210 leukemia cells, L-PAM resistance leukemia cells and P388 leukemia cells, as well as on HeLa cells. Cells were derived from in vivo tumors and established in cell culture. Cells were used until the tenth passage. Cytotoxicity was determined by counting surviving cells after 4 hours treatment and 48 hours growth in drug-free medium. For HeLa cells the colony inhibition test according to Cancer Chemother. Pharmacol. 1:249-254, 1978, was used. The percentage of cell growth in the treated cultures was compared with that of controls. ID50 values (doses inhibiting 50% of the cellular growth in respect to controls) were calculated on dose-response curves.
(§2) ^1) Cytotoxicity evaluated after 4 hours treatment;

L1210/LPAM = assay: in vitro cytotoxicity, L-PAM resistance leukemia cells (L1210/LPAM), 4 hours treatment; assay type: cell-based, murine; settings: for IC50: Mus musculus, L1210/LPAM, read-out: ID50 L1210/LPAM
Experimental: as §1, §2

P388 leukemia cells = assay: in vitro cytotoxicity, P388 leukemia cells, 48 hours treatment; assay type: cell-based, murine; settings: for IC50: Mus musculus, read-out: ID50 P388
Experimental: as §1
^2) Cytotoxicity evaluated after 48 hours treatment;

HeLa cells = assay: colony inhibition test, HeLa cells, 24 hours treatment; assay type: cell-based; settings: for IC50: Homo sapiens, read-out: ID50 HeLa
Experimental: as §1
^3) Colony inhibition test carried out after 24 hours treatment.

DNA-AT sequences = settings: reported in literature; cited from earlier work
[1] = L-PAM resistance leukemia cells, cytotoxicity evaluated after 4 hours treatment
[2] = P388 leukemia cells, cytotoxicity evaluated after 48 hours treatment
[3] = HeLa cells, colony inhibition test carried out after 24 hours treatment

For Cn1cc(NC(=O)c2cc(NC(=O)c3cc(NC=O)cn3C)cn2C)cc1C(=O)NCCC(=N)N [distamycin A, reference compound], the IC50 (L1210 leukemia cells; Mus musculus, read-out: ID50 L1210) was 198 mg/L (≈ 411 µM), the IC50 (L1210/LPAM; [1]) was 136 mg/L (≈ 282 µM) and the IC50 (P388 leukemia cells; [2]) was 25 mg/L (≈ 51.9 µM). The IC50 (HeLa cells; [3]) was 3.9 mg/L (≈ 8.1 µM) and the “interaction with DNA-AT sequences” value (DNA-AT sequences) was “interact reversibly and selectively with DNA-AT sequences interfering with both replication and trascription”.
Cn1cc(NC(=O)c2cc(NC(=O)c3cc(NC(=O)c4ccc(N(CCCl)CCCl)cc4)cn3C)cn2C)cc1C(=O)NCCC(=N)N [FCE 24517, β-[1-methyl-4-[1-methyl-4-[1-methyl-4-[4-N,N-bis(2-chloro-ethyl)aminobenzene-1-carboxamido]pyrrole-2-carboxamido]pyrrole-2-carboxamido]pyrrole-2-carboxamido]propionamidine hydrochloride] showed an IC50 (L1210/LPAM; 4 h) of 0.43 mg/L, an IC50 (P388 leukemia cells; P388, 48 h) of 0.21 mg/L and an IC50 (HeLa cells; HeLa, 24 h) of 0.014 mg/L.
With Cn1cc(NC(=O)c2cc(NC(=O)c3cc(NC(=O)c4cc(N(CCCl)CCCl)cs4)cn3C)cn2C)cc1C(=O)NCCC(=N)N [FCE 24690, β-[1-methyl-4-[1-methyl-4-[1-methyl-4-[4-N,N-bis(2-chloro-ethyl)aminothiophen-2-carboxamido]pyrrole-2-carboxamido]pyrrole-2-carboxamido]pyrrole-2-carboxamido]propionamidine hydrochloride] the “ID50 L1210” value (L1210 leukemia cells) was 1.365 mg/L, the “ID50 L1210/LPAM” value (L1210/LPAM; [1]) was 0.985 mg/L and the “ID50 P388” value (P388 leukemia cells; [2]) was 0.22 mg/L. For the same compound, the “ID50 HeLa” value (HeLa cells; [3]) was 0.037 mg/L.
